Measurements reported in PMC9527238, “Glutamate and GABAA receptor crosstalk mediates homeostatic regulation of neuronal excitation in the mammalian brain” (Signal Transduction and Targeted Therapy, 2022).

Key:
α1β2 GABAARs = molecular target: T1, α1β2 GABAARs (Rattus norvegicus, UniProt P62813+P63138); assay: [3H]glutamate binding assay, plasma membranes of HEK293 cells overexpressing α1 and β2; conditions: 40 nM [3H]glutamate + 0.4 mM non-radiolabeled competitor
T1 construct: expressed in transfected cells; host or cells: HEK293
Procedure: For membrane preparation, transfected or non-transfected HEK293 cells were washed twice with cold PBS and harvested by scraping into 5 ml cold PBS. Cells were then centrifuged at 1200 × g for 12 min at 4 °C and medium was removed. The washing procedure was repeated twice. Then the cell pellet was re-suspended into 1 ml of 50 mM Tris-HCl buffer (pH 7.4, with protease inhibitor) and homogenized using syringes with 18-G, 21-G and 23-G needles.
To separate the membrane, the homogenate were centrifuged for 20 min at 20,000 × g at 4 °C. Then the pellet was re-suspended into 1 ml of 50 mM Tris-HCl buffer, pH 7.4 and centrifuged again. After repeating this procedure for one more time, the pellet was re-suspended into 1 ml of 50 mM Tris-HCl buffer, pH 7.4 and the protein concentration was measured.
To conduct the binding assay, 100 µg membrane enriched preparation was incubated with 40 nM [3H]-Glutamate in a total volume of 0.5 ml in 50 mM Tris-HCl buffer, pH 7.4 for 1 h on ice. […] Then the reaction was terminated by quickly filtering the solution on Whatman filter paper and washing by 3.5 ml Tris-HCl buffer. Radioactivity was measured in a Beckman liquid scintillation counter.

[1] = system: GABAAR-mediated currents, WT mice; assay: Whole-cell recording of CA1 neurons, hippocampal slices of WT mice; type: cell-based, mouse; conditions: L-Glu 50 µM
Procedure: We next determined if glutamate-mediated allosteric potentiation of GABAAR function was impaired in hippocampal slices acutely prepared from postnatal 90-day-old KI mice. Whole-cell recordings of CA1 neurons were performed under voltage clamp configuration at a holding potential of −60 mV.
Mice were deeply anesthetized with urethane (1.5 g/kg, i.p.) and transcardially perfused with ice cold sucrose hypertonic cutting solution (in mM: KCl 3.0, NaH2PO4.H2O 1.25, NaHCO3 26, Na-vitamin C 0.4, Na-lactate 2.0, Na-pyruvate 2.0, D-glucose 10.0, Sucrose 220, CaCl2 0.1, MgCl2 2, MgSO4 4.0, pH 7.4, 290–300 mOsm/l) prior to decapitation as described previously.[47] After decapitation, the brain was rapidly removed and transferred to the ice cold cutting solution bubbled with 95% O2 and 5% CO2, and acute coronal brain slices (400 μm) were prepared on a Leica vibratome (VT1200S, Germany). All brain slices were placed into a standard artificial cerebral spinal fluid (ACSF) (in mM: NaCl 124, KCl 2.8, NaH2PO4.H2O 1.25, NaHCO3 26, Na-vitamin C 0.4, Na-lactate 2.0, Na-pyruvate 2.0, D-glucose 10.0, CaCl2 2, MgSO4 1.2, pH 7.4, 290–300 mOsm/l) incubated at 35 °C for 2 h prior to recording. Field excitatory postsynaptic potential (fEPSP) recordings were performed under current-clamp mode using HEKA EPC10 patch-clamp amplifier (HEKA Electronic, Lambrecht/Pfalz, Germany). […]

α1K155Dβ2γ2E168K GABAAR = molecular target: T2, α1K155Dβ2γ2E168K GABAAR (Rattus norvegicus, UniProt P18508+P62813+P63138, E206K/K182D); assay: Patch clamp, HEK293, mutant GABAAR; type: cell-based
T2 construct: expressed in transfected cells; host or cells: HEK293
Procedure: (§1) HEK293 cells were cultured in DMEM (Invitrogen) supplemented with 10% fetal bovine serum. Cells were grown to 40–60% confluence and transiently transfected using Lipofectamine 2000 (Invitrogen) with 1:0.5–1 plasmid/lipid ratio. Cells were transfected with a pBK-CMV expression vector containing a rat recombinant GABAAR α, β or γ subunits. Co-transections were done with a plasmid ratio of 1:1 αβ and 2:2:1 for αβγ subunit combinations, respectively. pcDNA3.1-GFP was also co-transfected along with GABAAR subunits as a transfected marker in order to facilitate the visualization of the transfected cells during electrophysiological experiments. Cells were re-plated on glass coverslips after 15–20 h transfection and were cultured for an additional 15–24 h before whole-cell patch-clamp recordings.
(§2) The site-directed mutagenesis of α, β or γ subunits were performed by using the QuikChange method (Stratagene). […] Wild-type or mutant subunits were transfected in HEK293 cells and subjected to electrophysiology examinations.
(§3) Whole-cell patch-clamp recordings were performed under voltage-clamp mode using an Axopatch 200B or 1D patch-clamp amplifier (Molecular Devices) on HEK293 cells and cultured neurons. Whole-cell currents were recorded at a holding potential of −60 mV, and signals were filtered at 2 kHz, digitized at 10 kHz (Digidata 1322 A). Recording pipettes (3–5 MΩ) were filled with the intracellular solution that contained (mM): CsCl 140, HEPES 10, Mg-ATP 4, QX-314 5, pH 7.20; osmolarity, 290–295 mOsm. BAPTA (10 mM) was added in the intracellular solution. The coverslips were continuously superfused with the extracellular solution containing (mM): NaCl 140, KCl 5.4, HEPES 10, MgCl2 1.0, CaCl2 1.3, glucose 20, pH 7.4; osmolarity, 305–315 mOsm.

[2] = molecular target: T3, α1β2E181Gγ2 GABAAR with γ2 R197E mutation (Rattus norvegicus, UniProt P18508+P62813+P63138, E206G/R235E); assay: Patch clamp, HEK293, mutant GABAAR; type: cell-based
T3 construct: expressed in transfected cells; host or cells: HEK293
Procedure: as §1, §2, §3

N[C@@H](CCC(=O)O)C(=O)O [glutamate, Glutamate]
[3H]glutamate binding activity in presence of competitor (α1β2 GABAARs): 262.2 ± 47.8 CPM
GABAAR-mediated IPSC currents relative to baseline [1]: 153.0 ± 9.5%
restored potentiation, % of wild-type α1β2γ2 (α1K155Dβ2γ2E168K GABAAR; 100 μM glutamate): 71.8 ± 14.7%
restored potentiation, % of wild-type α1β2γ2 (α1K155Dβ2γ2E168K GABAAR; 1 mM glutamate): 76.4 ± 10%
restored potentiation, % of wild-type α1β2γ2 ([2]; Glu 100 μM): 76.6 ± 10.4%
restored potentiation, % of wild-type α1β2γ2 ([2]; Glu 1 mM): 84.5 ± 16.9%
